Measured values reported in publication PMC11253624, “Unsaturated fatty acid perturbation combats emerging triazole antifungal resistance in the human fungal pathogen Aspergillus fumigatus” (mBio, 2024).
In brackets after ≈: the same amount, converted by molar mass.

What was measured:
Aspergillus fumigatus [1] = test: FIC checkerboard synergy assay, A. fumigatus; assay type: cell-based; conditions: for MIC: Aspergillus fumigatus
A. fumigatus CEA10 = test: Fatty acid profile of 24-hour biofilms by GC-MS; assay type: cell-based, Aspergillus fumigatus; conditions: CEA10 24-hour biofilm; MBX-7591 0.58 µg/mL, voriconazole 0.0625 µg/mL
Aspergillus fumigatus [2] = test: CLSI-based microbroth dilution MIC, A. fumigatus strains; conditions: Aspergillus fumigatus
Cryptococcus neoformans = test: FIC checkerboard assay MBX-7591 and oleic acid, C. neoformans; assay type: cell-based
Procedure: Single-treatment controls were completed with 50 µL of media to substitute the volume of the other compound. […] Additional untreated and media-only controls were added to the plate as described above. Incubation of the plates and MIC assessments (individual and in combination) were performed as described above. FIC calculations were done according to the established formula: ∑FIC=MIC combination compound A/MIC individual compound A + MIC combination compound B/MIC individual compound B . Synergy was considered equal or lower than 0.5, and antagonism was considered to be higher than 2. FIC scores reported represent between three and five biological replicates. All antifungal susceptibility testing was done in 96-well plates using RPMI 1640 media buffered with 165 mM of MOPS and pH 7 using NaOH. CLSI-based microbroth dilution assays were done in accordance with M27 ([49]). […] Additionally, an untreated control (100 µL of a stock of 2 × 10^3 spores/mL and 100 µL of media) and a media-only control (200 µL media) were included in the plate. The plate was covered in a Breathe-Eazy membrane to allow for uniform oxygen diffusion throughout the plate and incubated for 24 hours at 35°C (Candida spp.) or 72 hours at 35°C ± 5% CO2 (Cryptococcus neoformans).

Compound: OC(Cn1cncn1)(Cn1cncn1)c1ccc(F)cc1F [Fluconazole, fluconazole]
- MIC (Aspergillus fumigatus [1]; strain CEA10, FLC alone, read-out: MIC Azole (FLC)): > 256 µg/mL
- MIC Azole in combination (FLC) (Aspergillus fumigatus [1]; strain CEA10, FLC with 0.613 µg/mL MBX-7591): 16 µg/mL
- fold increase in FLC potency (Aspergillus fumigatus [1]; with 0.613 µg/mL MBX-7591): > 16 fold

Compound: C[C@@H](c1ncncc1F)[C@](O)(Cn1cncn1)c1ccc(F)cc1F [Voriconazole]
- MIC (Aspergillus fumigatus [1]; read-out: MIC VCZ, strain 08-19-02-61 (TR34/L98H), alone): 2 µg/mL
- MIC (Aspergillus fumigatus [1]; read-out: MIC VCZ, strain 08-31-08-91 (TR34/L98H), alone): 4 µg/mL
- MIC (Aspergillus fumigatus [1]; read-out: MIC VCZ, strain F11628 (G138C), alone): > 8 µg/mL
- MIC (Aspergillus fumigatus [1]; read-out: MIC VCZ, strain F15390 (caf8) (M220T), alone): 1 µg/mL
- MIC (Aspergillus fumigatus [1]; strain CEA10, alone, read-out: MIC VCZ): 0.25 to 0.5 µg/mL
- MIC VCZ in combination (Aspergillus fumigatus [1]; strain 08-19-02-61, with MBX-7591): 0.5 µg/mL
- MIC VCZ in combination (Aspergillus fumigatus [1]; strain 08-31-08-91, with MBX-7591): 1 µg/mL
- MIC VCZ in combination (Aspergillus fumigatus [1]; strain CEA10, with MBX-7591, listed as VCZ): 0.0625 to 0.125 µg/mL
- MIC VCZ (Aspergillus fumigatus [1]; strain F11628 (G138C), alone, listed as VCZ): >8 µg/mL
- MIC VCZ in combination (Aspergillus fumigatus [1]; strain F11628, with MBX-7591): 0.5 to 1 µg/mL
- MIC VCZ in combination (Aspergillus fumigatus [1]; strain F15390 (caf8), with MBX-7591): 0.25 µg/mL
- increase in VCZ potency in combination (Aspergillus fumigatus [1]; with 0.613 µg/mL MBX-7591): four to eight times more potent
- C14:0 relative percentage of fatty acids (A. fumigatus CEA10): 0.11 ± 0.0046
- C15:0 relative percentage of fatty acids (A. fumigatus CEA10): 0.39 ± 0.11
- C16:0 (palmitic acid) relative percentage of fatty acids (A. fumigatus CEA10): 18.71 ± 0.25
- C16:1n7 relative percentage of fatty acids (A. fumigatus CEA10): 0.38 ± 0.041
- C17a relative percentage of fatty acids (A. fumigatus CEA10): 0.18 ± 0.15
- C18:0 (stearic acid) relative percentage of fatty acids (A. fumigatus CEA10): 3.06 ± 0.26
- C18:1n7 relative percentage of fatty acids (A. fumigatus CEA10): 0.00 ± 0
- C18:1n9 (oleic acid) relative percentage of fatty acids (A. fumigatus CEA10): 31.26 ± 1.67
- C18:2n6 relative percentage of fatty acids (A. fumigatus CEA10): 45.91 ± 1.99
- MIC (Aspergillus fumigatus [2]; ATCC46455, read-out: Voriconazole MIC): 0.25 to 0.5 µg/mL (≈ 0.716 to 1.43 µM)
- MIC (Aspergillus fumigatus [2]; read-out: Voriconazole MIC, strain 08-19-02-10 (TR34/L98H)): 2 µg/mL (≈ 5.73 µM)
- MIC (Aspergillus fumigatus [2]; read-out: Voriconazole MIC, strain 08-19-02-46 (TR34/L98H)): 2 µg/mL (≈ 5.73 µM)
- MIC (Aspergillus fumigatus [2]; read-out: Voriconazole MIC, strain 08-19-02-61 (TR34/L98H), Table S6): 1 µg/mL (≈ 2.86 µM)
- MIC (Aspergillus fumigatus [2]; read-out: Voriconazole MIC, strain 08-31-08-91 (TR34/L98H), Table S6): 4 µg/mL (≈ 11.5 µM)
- MIC (Aspergillus fumigatus [2]; read-out: Voriconazole MIC, strain 10-19-02-27 (TR34/L98H)): 4 µg/mL (≈ 11.5 µM)
- MIC (Aspergillus fumigatus [2]; read-out: Voriconazole MIC, strain F11628 (G138C), Table S6): > 8 µg/mL
- MIC (Aspergillus fumigatus [2]; read-out: Voriconazole MIC, strain F15390 (M220T), Table S6): 1 µg/mL (≈ 2.86 µM)

Compound: CCCCCCCC/C=C\CCCCCCCC(=O)O [Oleic acid, oleic acid]
- MIC (Aspergillus fumigatus [1]; CEA10, oleic acid alone, read-out: MIC OA): > 500 µg/mL
- MIC OA combination (Aspergillus fumigatus [1]; CEA10, first line of Table S8 (MBX-7591 9.81 μg/ml)): 7.81 µg/mL
- MIC OA combination (Aspergillus fumigatus [1]; CEA10, second line of Table S8 (MBX-7591 19.63 μg/ml)): 15.63 µg/mL
- MIC (Cryptococcus neoformans; Cryptococcus neoformans, H99, oleic acid alone, 5% CO2): > 500 µg/mL
- MIC OA combination (Cryptococcus neoformans; H99, 5% CO2): 31.25 µg/mL
